Molecules are shown by their SMILES.

The first test has as its system MCF7 cells. The test is described as follows: MCF7 cell activity test (CCK8 proliferation inhibition). The test is classed as cell-based. As to conditions: Homo sapiens, MCF7, 144 h, 6 days incubation. How it is done:
Experimental Example 1: MCF7 cell activity test
Cell culture: MCF7 cells (culture conditions: MEM medium+20% FBS+1% essential amino acids++1 mg/100 ml insulin, 37° C., 5% CO2). Plating: The cells subcultured into the logarithmic growth phase were collected and transferred into a centrifuge tube, and centrifuged at 800 rpm for 5 min. The cells were resuspended in complete medium and counted. The cells were diluted and adjusted to a final concentration of 30,000 cells/mL. The cells were then seeded into a 96-well plate with 100 μL per well and incubated in an incubator overnight. Administration: Each group of drug solutions was added into the 96-well plate, 100 μL per well, n=3 for each drug concentration. Meanwhile, negative wells (n=6) and blank wells (n=3) were set up. The 96-well plate was incubated in the incubator for further 6 days. CCK8 reagent was added to the 96-well plate, 20 μL per well, and then the plate was placed in the incubator for further 4 h. The absorbance of the solution was measured at a wavelength of 450 nm using an enzyme reader. The proliferation inhibition rate was calculated and the half inhibitory concentration IC50 value was calculated using Graphpad Prism 6.0 software.
Turning to `Cn1nc(N2CCC(=O)NC2=O)c2cc(F)c(C3(O)CCN(C[C@@H]4CCCC[C@H]4CN4CCN(c5ccc([C@@H]6c7ccc(O)cc7CC[C@@H]6c6ccccc6)cc5)CC4)CC3)cc21` [VI-23, 1-(5-fluoro-6-(4-hydroxy-1-(((1R, 2R)-2-((4-(4-((1R, 2S)-6-hydroxy-2-phenyl-1,2,3,4-tetrahydronaphthalen-1-yl)phenyl)piperazin-1-yl)methyl)cyclohexyl)methyl)piperidin-4-yl)-1-methyl-1H-indazol-3-yl)dihydropyrimidine-2,4 (1H, 3H)-dione], the 50% inhibitory concentration (IC50) was < 25 nM.
As for `C[C@@H]1CC(O)(c2cc3c(cc2F)c(N2CCC(=O)NC2=O)nn3C)CCN1C[C@@H]1CCCC[C@H]1CN1CCN(c2ccc([C@@H]3c4ccc(O)cc4CC[C@@H]3c3ccccc3)cc2)CC1` (stereo partly drawn) [VI-29, 1-(5-fluoro-6-((2R)-4-hydroxy-1-(((1R, 2R)-2-((4-(4-((1R, 2S)-6-hydroxy-2-phenyl-1,2,3,4-tetrahydronaphthalen-1-yl)phenyl)piperazin-1-yl)methyl)cyclohexyl)methyl)-2-methylpiperidin-4-yl)-1-methyl-1H-indazol-3-yl)dihydropyrimidine-2,4 (1H,3H)-dione], the IC50 is < 25 nM.
Same read-out and setting: with `C[C@H]1CC(O)(c2cc3c(cc2F)c(N2CCC(=O)NC2=O)nn3C)CCN1C[C@@H]1CCCC[C@H]1CN1CCN(c2ccc([C@@H]3c4ccc(O)cc4CC[C@@H]3c3ccccc3)cc2)CC1` (stereo partly drawn) [VI-30, 1-(5-fluoro-6-((2S)-4-hydroxy-1-(((1R,2R)-2-((4-(4-((1R,2S)-6-hydroxy-2-phenyl-1,2,3,4-tetrahydronaphthalen-1-yl)phenyl)piperazin-1-yl)methyl)cyclohexyl)methyl)-2-methylpiperidin-4-yl)-1-methyl-1H-indazol-3-yl)dihydropyrimidine-2,4 (1H,3H)-dione] the figure was < 50 nM; with `Cn1c(=O)n(C2CCC(=O)NC2=O)c2cccc(N3CCN(C[C@@H]4CCCC[C@H]4CN4CCN(c5ccc([C@@H]6c7ccc(O)cc7CC[C@@H]6c6ccccc6)cc5)CC4)CC3)c21` (stereo partly drawn) [VII-1, 3-(4-(4-(((1R,2R)-2-((4-(4-((1R,2S)-6-hydroxy-2-phenyl-1,2,3,4-tetrahydronaphthalen-1-yl)phenyl)piperazin-1-yl)methyl)cyclohexyl)methyl)piperazin-1-yl)-3-methyl-2-oxo-2,3-dihydro-1H-benzo[d]imidazol-1-yl)piperidine-2,6-dione], < 50 nM.
The same measure, in the same setting: with `Cn1c(=O)n(C2CCC(=O)NC2=O)c2ccc(N3CCN(C[C@@H]4CCCC[C@H]4CN4CCN(c5ccc([C@@H]6c7ccc(O)cc7CC[C@@H]6c6ccccc6)cc5)CC4)CC3)cc21` (stereo partly shown) [VII-2] the figure was < 100 nM; with `Cn1c(=O)n(C2CCC(=O)NC2=O)c2cccc(C3CCN(C[C@@H]4CCCC[C@H]4CN4CCN(c5ccc([C@@H]6c7ccc(O)cc7CC[C@@H]6c6ccccc6)cc5)CC4)CC3)c21` (stereo partly shown) [VII-3], < 100 nM.

The subject of the next test is MCF-7 tumor. The test is described as follows: In vivo tumor inhibitory activity test (MCF-7 tumor, estradiol-supplemented mice). As to conditions: 5 mg/kg/d (I.V.), Day 19, relative tumor volume inhibition rate, P < 0.05. As to the method:
Experimental Example 3: In Vivo Tumor Inhibitory Activity Test
MCF-7 cell culture (culture conditions: MEM medium+20% FBS+1% essential amino acids ++1 mg/100 ml insulin, 37° C., 5% CO2). The cells subcultured into the logarithmic growth phase were collected and transferred into a centrifuge tube, and centrifuged at 800 rpm for 5 min. On the day of inoculation, the cell density was adjusted to 3*10^7 cells/mL. […]
Grouped administration: When the average tumor volume reached 80-150 mm^3, the animals were randomly grouped according to tumor volume, with the coefficient of variation (CV) of tumor volumes not exceeding ⅓ of the mean volume. […] The body weight of the mice was measured before administration, and the administration was based on the body weight on that day. Experimental observation and data collection: After cell inoculation, the effect of the tumor on the normal behavior of the animals was routinely monitored every week. […] After the start of administration, the mice were weighed and dosed daily, and tumor volume was measured twice a week. The tumor volume was calculated as follows: tumor volume (mm^3)=0.52×tumor long diameter (mm) x tumor short diameter (mm) 2. […]
[formula] […] All data were analyzed using GraphPad Prism 6.0.
For `Cn1nc(N2CCC(=O)NC2=O)c2cc(F)c(C3(O)CCN(C[C@@H]4CCCC[C@H]4CN4CCN(c5ccc([C@@H]6c7ccc(O)cc7CC[C@@H]6c6ccccc6)cc5)CC4)CC3)cc21` [VI-23, 1-(5-fluoro-6-(4-hydroxy-1-(((1R, 2R)-2-((4-(4-((1R, 2S)-6-hydroxy-2-phenyl-1,2,3,4-tetrahydronaphthalen-1-yl)phenyl)piperazin-1-yl)methyl)cyclohexyl)methyl)piperidin-4-yl)-1-methyl-1H-indazol-3-yl)dihydropyrimidine-2,4 (1H, 3H)-dione], the “TGI (Day 19)” value is reported as 77.9%.

(Values after patent US20260364185A1, “Estrogen Receptor Modulator and Use Thereof” (JIANGSU VCARE PHARMATECH CO., LTD., priority 2023, published 2026).)
